Laboratory results as given in patent US7413895B2, “DNA encoding neutral amino acid transporter” (Japan Science and Technology Corporation, priority 1998, dated 2008).

What was measured:
Human Daudi cells = experiment: Proliferation of Daudi cells with or without BCH; format: cell-based; conditions: 20 mM of BCH, 5 days, cell numbers counted
Description: (§1) T24 cells derived from human bladder cancer were incubated and maintained in an Eagle's minimal essential medium containing 10% of fetal bovine serum. Human Daudi cells were incubated and maintained in an RPMI medium containing 20% of fetal bovine serum. T24 cells or Daudil cells were incubated in a 24-well plate (800 cells/well) for 5 days in a medium with or without 20 mM of BCH and the cell numbers were counted.

[1] = test system: T24 cells derived from human bladder cancer; experiment: Inhibiting mode of leucine incorporation by T24 cells by BCH, double reciprocal plots; format: cell-based
Description: T24 cells derived from human bladder cancer were incubated and maintained in an Eagle's minimal essential medium containing 10% of fetal bovine serum. A test for the incorporation of amino acids into T24 cells was carried out by incubating the T24 cells on a 24-well plate and finished when the state became confluent. The amino acid incorporation test was started by removing the incubating solution and adding a Dulbecco's PBS (manufactured by Gibco) containing ^14C-amino acid and finished by removing it, cooling with ice and washing with a Dulbecco's PBS. After washing, the above was dissolved in 0.1N NaOH and the radioactivity was measured by a liquid scintillation counter.
Dependency of the ^14C-leucine incorporation by T24 cells on the concentration was measured in the absence of BCH, in the presence of 50 μM of BCH and in the presence of 100 μM of BCH and the inhibiting mode was investigated by means of double reciprocal plots.

[2] = test system: T24 cells derived from human bladder cancer; experiment: Inhibition of 14C-leucine incorporation by T24 cells by amino acids and similar substances; format: cell-based; conditions: 14C-leucine 20 μM, 2 mM unlabeled compound
[3] = test system: cells where both LAT1 and 4F2hc were strongly expressed; experiment: Proliferation of cells where both LAT1 and 4F2hc were strongly expressed, effect of BCH; format: cell-based, human
Description: as §1

[4] = target: rat neutral amino acid transporter LAT1 (Rattus norvegicus, UniProt Q63016); experiment: Inhibition of 14C-leucine incorporation into oocytes injected with rat LAT1 and rat 4F2hc cRNA by amino acids and similar substances; format: cell-based; design: expressed in transfected cells; host or cells: oocytes (Xenopus laevis by the cited method of Kanai and Hediger) injected with rat LAT1 cRNA and rat 4F2hc cRNA; conditions: rat LAT1/rat 4F2hc oocytes; 14C-leucine 20 μM, 2 mM unlabeled compound, choline uptake solution
Mouse sarcoma 180 cells = experiment: Survival of ICR mouse after intraperitoneal transplantation of mouse sarcoma 180 cells; format: in vivo; conditions: male ICR mouse, sarcoma 180 cells intraperitoneally transplanted, 300 mg/kg for ten days, observation for 19 days
Description: Mouse sarcoma 180 cells were intraperitoneally transplanted (1×10^6) to male ICR mouse and, from the next day of the transplantation, BCH which was a inhibitor for the amino acid transporter, D-Leu having a inhibiting effect on amino acid transporter and D-Ala having no inhibiting action thereon were administered at the dose of 300 mg/kg for ten days. After the transplantation, it was confirmed every day whether the mouse was dead or alive.

[5] = target: T1, human amino acid transporter LAT1 (Homo sapiens, UniProt Q01650); experiment: Incorporation of 14C-labeled amino acids into oocytes co-expressing human LAT1 and human 4F2hc; format: cell-based; design: expressed in transfected cells; conditions: summary statement of the disclosure
[6] = test system: T24 cells derived from human bladder cancer; experiment: Proliferation of T24 cells with or without BCH; format: cell-based; conditions: 20 mM of BCH, 5 days, cell numbers counted
Description: as §1

[7] = test system: rat liver cell line where LAT1 was highly expressed; experiment: Cell proliferation of cultured rat liver cell line, Cell Counting Kit-8; format: cell-based; conditions: 20 mM added to William's medium, incubation for 48 hours
Description: A rat liver cell line where LAT1 was highly expressed was incubated on a William's medium, 20 mM of D-leucine or BCH which suppressed the incorporation mediated by LAT1 were added to the medium and, by means of an incubation for 48 hours, cell numbers were investigated using a Cell Counting Kit-8 (manufactured by Dojindo Laboratories). The cell numbers were measured as an absorption at 450 nm (O.D. 450).

P30/OHK cells = experiment: Proliferation of P30/OHK cells, effect of BCH; format: cell-based, human; conditions: expression of 4F2hc not detected
CCRF-SB cells = experiment: Proliferation of CCRF-SB cells, effect of BCH; format: cell-based, human; conditions: expression of 4F2hc not detected
[8] = target: T1, human amino acid transporter LAT1; experiment: Competitive antagonism test: incorporation of 14C-labeled leucine or phenylalanine into oocytes co-expressing human LAT1 and human 4F2hc in the presence of test substance; format: cell-based; design: expressed in transfected cells; conditions: 14C-labeled leucine 20 μM, test substance 2 mM, 30 minutes, choline chloride uptake solution

T1 sequence (Q01650 whole entry): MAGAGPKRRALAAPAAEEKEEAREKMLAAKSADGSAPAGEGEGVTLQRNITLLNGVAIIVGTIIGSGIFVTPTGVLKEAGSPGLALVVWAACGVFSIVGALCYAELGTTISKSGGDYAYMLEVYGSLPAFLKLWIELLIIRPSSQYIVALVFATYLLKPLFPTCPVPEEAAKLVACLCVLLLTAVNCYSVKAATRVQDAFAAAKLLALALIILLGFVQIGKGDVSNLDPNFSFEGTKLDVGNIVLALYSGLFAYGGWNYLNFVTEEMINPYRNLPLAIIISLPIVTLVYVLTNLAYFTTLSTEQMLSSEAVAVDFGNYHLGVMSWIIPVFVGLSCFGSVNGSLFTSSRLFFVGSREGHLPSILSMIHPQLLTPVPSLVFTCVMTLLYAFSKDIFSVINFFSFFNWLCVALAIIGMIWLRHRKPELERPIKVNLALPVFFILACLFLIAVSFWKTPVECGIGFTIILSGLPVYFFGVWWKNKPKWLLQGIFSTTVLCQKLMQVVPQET
T1 sequence (as listed by the source partner): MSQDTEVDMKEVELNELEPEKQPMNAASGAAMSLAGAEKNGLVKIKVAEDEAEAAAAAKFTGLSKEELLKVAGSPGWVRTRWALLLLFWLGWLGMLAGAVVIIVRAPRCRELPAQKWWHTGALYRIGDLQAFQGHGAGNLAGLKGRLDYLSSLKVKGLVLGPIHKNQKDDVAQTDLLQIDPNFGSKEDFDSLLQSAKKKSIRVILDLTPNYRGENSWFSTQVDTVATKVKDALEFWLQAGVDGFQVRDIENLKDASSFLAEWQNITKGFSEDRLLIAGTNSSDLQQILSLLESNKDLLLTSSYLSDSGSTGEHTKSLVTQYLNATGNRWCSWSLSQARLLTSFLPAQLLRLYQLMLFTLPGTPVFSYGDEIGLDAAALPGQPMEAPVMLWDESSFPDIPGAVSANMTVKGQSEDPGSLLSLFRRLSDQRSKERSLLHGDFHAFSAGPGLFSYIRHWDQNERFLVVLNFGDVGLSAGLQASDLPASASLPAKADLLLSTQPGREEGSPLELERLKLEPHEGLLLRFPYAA
rat neutral amino acid transporter LAT1, sequence (Q63016 whole entry): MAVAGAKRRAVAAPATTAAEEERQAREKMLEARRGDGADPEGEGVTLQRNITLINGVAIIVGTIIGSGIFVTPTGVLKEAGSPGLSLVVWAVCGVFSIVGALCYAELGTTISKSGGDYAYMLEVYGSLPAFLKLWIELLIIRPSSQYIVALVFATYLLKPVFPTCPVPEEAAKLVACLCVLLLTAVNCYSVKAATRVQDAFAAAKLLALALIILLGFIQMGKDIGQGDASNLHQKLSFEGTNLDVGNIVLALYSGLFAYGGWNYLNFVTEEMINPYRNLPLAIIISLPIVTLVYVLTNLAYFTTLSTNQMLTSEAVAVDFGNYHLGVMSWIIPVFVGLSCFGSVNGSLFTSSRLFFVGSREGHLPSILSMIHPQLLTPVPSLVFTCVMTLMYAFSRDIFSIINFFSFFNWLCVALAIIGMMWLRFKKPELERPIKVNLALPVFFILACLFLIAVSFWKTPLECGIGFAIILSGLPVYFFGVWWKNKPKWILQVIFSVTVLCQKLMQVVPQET
rat neutral amino acid transporter LAT1, sequence (Q794F9 whole entry partner): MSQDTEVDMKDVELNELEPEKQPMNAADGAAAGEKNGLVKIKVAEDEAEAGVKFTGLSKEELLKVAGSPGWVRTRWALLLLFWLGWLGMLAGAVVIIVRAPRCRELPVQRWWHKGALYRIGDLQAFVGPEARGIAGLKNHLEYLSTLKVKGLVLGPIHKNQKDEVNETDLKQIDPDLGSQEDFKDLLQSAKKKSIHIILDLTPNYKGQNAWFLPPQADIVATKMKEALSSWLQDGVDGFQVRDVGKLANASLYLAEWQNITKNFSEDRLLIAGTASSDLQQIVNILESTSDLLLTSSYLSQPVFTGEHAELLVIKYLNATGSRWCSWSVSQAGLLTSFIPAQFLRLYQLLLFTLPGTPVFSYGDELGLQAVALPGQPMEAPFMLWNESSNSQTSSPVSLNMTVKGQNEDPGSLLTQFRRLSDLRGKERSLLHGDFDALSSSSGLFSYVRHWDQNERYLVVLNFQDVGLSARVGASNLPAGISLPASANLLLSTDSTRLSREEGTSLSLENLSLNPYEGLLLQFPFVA

NC1(C(=O)O)CC2CCC1C2 (stereo not shown) [BCH, 2-amino-2-norbornane-carboxylic acid]
suppression of proliferation of Daudi cells (Human Daudi cells): rarely showed a suppressing effect
inhibiting mode of leucine incorporation ([1]; 0, 50 μM and 100 μM of BCH, double reciprocal plots): competitive inhibition
Ki ([1]; 14C-leucine incorporation, 50 μM and 100 μM of BCH): 156 µM
inhibition of incorporation of 14C-leucine by T24 cells [2]: strongly inhibited
suppressing effect on proliferation [3]: strong suppressing effect
inhibition of incorporation of 14C-leucine mediated by LAT1 [4]: inhibited
survival effect (Mouse sarcoma 180 cells): significant survival effect
incorporation in a cell in which human LAT1 and human 4F2hc are co-expressed [5]: confirmed
suppression of proliferation of T24 cells [6]: highly suppressed
cell numbers (O.D. 450) compared with control group [7]: a reduction in the cell numbers was noted
effect on proliferation of P30/OHK cells (P30/OHK cells): weak
effect on proliferation of CCRF-SB cells (CCRF-SB cells): weak
inhibition of incorporation of 14C-labeled leucine mediated by the human LAT1 [8]: inhibited
